Results from US9163015B2, “Pyrazolopyridine, pyrarolopyrazine, pyrazolopyrimidine, pyrazolothiophene and pyrazolothiazole compounds as MGLUR4 allosteric potentiators, compositions, and methods of treating neurological dysfunction” (Vanderbilt University, priority 2010, dated 2015).

These compounds were tested against human mGluR4 (Homo sapiens (Human), UniProt Q14833) (assay: mGluR4 potentiation assay, CHO cells transfected with human mGluR4, Ca2+-sensitive fluorescent dye, EC20 agonist). Conditions: potentiation of mGluR4; table does not state human or rat receptor.
human mGluR4, sequence (Q14833 33-912): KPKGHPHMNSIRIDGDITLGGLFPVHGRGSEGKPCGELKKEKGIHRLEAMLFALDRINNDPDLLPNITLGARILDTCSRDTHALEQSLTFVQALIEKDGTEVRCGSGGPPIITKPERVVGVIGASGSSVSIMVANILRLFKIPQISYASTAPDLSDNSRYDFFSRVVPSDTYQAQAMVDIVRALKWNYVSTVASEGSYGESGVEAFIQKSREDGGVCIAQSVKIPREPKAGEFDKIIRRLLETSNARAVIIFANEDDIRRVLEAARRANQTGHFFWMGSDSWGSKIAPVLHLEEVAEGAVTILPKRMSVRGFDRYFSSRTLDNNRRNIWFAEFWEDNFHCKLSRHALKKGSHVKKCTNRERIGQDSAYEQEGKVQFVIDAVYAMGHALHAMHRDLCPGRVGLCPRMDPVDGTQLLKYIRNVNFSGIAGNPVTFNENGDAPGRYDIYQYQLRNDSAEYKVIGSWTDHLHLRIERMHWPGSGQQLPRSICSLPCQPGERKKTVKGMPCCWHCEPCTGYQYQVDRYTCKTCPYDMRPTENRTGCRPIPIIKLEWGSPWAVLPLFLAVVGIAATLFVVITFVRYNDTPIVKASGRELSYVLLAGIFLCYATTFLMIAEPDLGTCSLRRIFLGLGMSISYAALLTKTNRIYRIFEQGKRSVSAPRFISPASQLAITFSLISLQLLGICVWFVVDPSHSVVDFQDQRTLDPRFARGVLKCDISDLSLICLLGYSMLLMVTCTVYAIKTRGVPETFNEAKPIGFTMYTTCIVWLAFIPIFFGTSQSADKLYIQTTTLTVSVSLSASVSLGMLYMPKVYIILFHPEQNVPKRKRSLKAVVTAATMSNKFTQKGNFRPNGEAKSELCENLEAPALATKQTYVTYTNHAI
Assay type: cell-based
Experimental: The disclosed compounds and compositions can be evaluated for their ability to act as a potentiator of metabotropic glutamate receptor activity, in particular mGluR4 activity, by any suitable known methodology known in the art. For example, Chinese Hamster Ovary (CHO) cells transfected with human mGluR4 or HEK cells co-transfected with rat mGluR4 and the G-protein regulated Inwardly Rectifying Potassium channel (GIRK) were plated in clear bottom assay plates for assay in a Hamamatsu FDSS Fluorometric Plate Reader. The cells were loaded with either a Ca2+-sensitive fluorescent dye or the thallium responsive dye and the plates were washed and placed into a suitable kinetic plate reader. For human mGluR4 assays, a fluorescence baseline was established for 3-5 seconds, the disclosed compounds were then added to the cells, and the response in cells was measured. Approximately two and a half minutes later, a concentration of mGluR4 orthosteric agonist (e.g. glutamate or L-AP4) eliciting approximately 20% (EC20) of the maximal agonist response was added to the cells, and the response was measured. Two minutes later, a concentration of mGluR4 agonist (e.g. glutamate or L-AP4) eliciting 80% (EC80) of the maximal agonist response was added to the cells, and the response was measured. For rat mGluR4/GIRK experiments, a baseline was established for approximately five seconds, disclosed compounds were added, and either an EC20 or EC80 concentration of agonist was added approximately two and one half minutes later.
The above described assay operated in two modes. In the first mode, a range of concentrations of the disclosed compounds are added to cells, followed by a single fixed concentration of agonist. If the compound acts as a potentiatior, an EC50 value for potentiation and a maximum extent of potentiation by the compound at this concentration of agonist is determined by non-linear curve fitting. If the compound acts as a noncompetitive antagonist, an IC50 value is determined by non-linear curve fitting. In the second mode, several fixed concentrations of the disclosed compounds are added to various wells on a plate, followed by a range in concentrations of agonist for each concentration of disclosed compound. The EC50 values for the agonist at each concentration of compound are determined by non-linear curve fitting. A decrease in the EC50 value of the agonist with increasing concentrations of the sample compound (a leftward shift of the agonist concentration-response curve) is an indication of the degree of mGluR4 potentiation at a given concentration of the sample compound. A decrease in the maximal response of the agonist with increasing concentrations of the sample compounds, with or without a rightward shift in agonist potency, is an indication of the degree of noncompetitive antagonism at mGluR4. The second mode also indicates whether the sample compounds also affect the maximum response to mGluR4 to agonists.

EC50 [µM] | Structure (SMILES)
3.88 | O=C(c1cccc(C(F)(F)F)c1)c1ccc(Nc2n[nH]c3cccnc23)cc1Cl [Example 38, (4-((1H-pyrazolo[4,3-b]pyridin-3-yl)amino)-2-chlorophenyl)(3-(trifluoromethyl)phenyl)methanone]
0.349 | Oc1ccc(Nc2n[nH]c3cccnc23)cc1F [Example 73, 4-((1H-pyrazolo[4,3-b]pyridin-3-yl)amino)-2-fluorophenol]
5.5 | Clc1ccc(Nc2n[nH]c3cccnc23)cn1 [Example 15, N-(6-chloropyridin-3-yl)-1H-pyrazolo[4,3-b]pyridin-3-amine]
5.22 | CC(C)C1CCC(Nc2n[nH]c3cccnc23)CC1 (centres unmarked) [Example 29, N-(4-isopropylcyclohexyl)-1H-pyrazolo[4,3-b]pyridin-3-amine]
0.385 | Fc1ccc(Nc2n[nH]c3cccnc23)cc1C(F)(F)F [Example 71, N-(4-fluoro-3-(trifluoromethyl)phenyl)-1H-pyrazolo[4,3-b]pyridin-3-amine]
3.59 | Cn1ccc2ccc(Nc3n[nH]c4cccnc34)cc21 [Example 53, N-(1-methyl-1H-indol-6-yl)-1H-pyrazolo[4,3-b]pyridin-3-amine]
0.41 | Fc1c(Cl)cc(Nc2n[nH]c3cccnc23)cc1Cl [Example 43, N-(3,5-dichloro-4-fluorophenyl)-1H-pyrazolo[4,3-b]pyridin-3-amine]
11.9 | Cn1nc2cccnc2c1Nc1ccc(F)c(Cl)c1 [Example 59, N-(3-chloro-4-fluorophenyl)-2-methyl-2H-pyrazolo[4,3-b]pyridin-3-amine]
